The record followed here is patent US20090047246A1, “NOVEL INHIBITORS OF HEPATITIS C VIRUS REPLICATION” (InterMune, Inc., priority 2007, published 2009).

Read-outs that look alike come from different tables or passages of the source.

The target of the assay is T1, HCV NS3 helicase (Hepatitis C virus genotype 1b, UniProt P26663).
T1 construct: full-length NS3 (1-631), purified at Array BioPharma
Briefly: HCV Helicase Prompt FRET Assay (Example A). It counts as biochemical. Conditions: read-out: IC50 Activity. An outline of the steps:
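Initial unwinding rates, monitored as FAM fluorescence gain (ex 485, em 535) over ~30 min at room temperature, gave IC50 via 4- or 5-parameter logistic fits. Reactions: 50 nM quenched duplex, 250 nM capture strand, 300 μM ATP, 5–6 nM NS3 1-631 after 5 min compound preincubation, MOPS pH 7.0 buffer, 2% DMSO.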

[1] abbreviates: HCV NS3 helicase, tables do not say whether Example A or Example B assay.
Setting [2] is: Table 32, compounds made using Schemes 46-49.
Where [3] appears, read: Table 34, compounds made using Schemes 51-52.
The mark [4] stands for this setting: Table 36, compounds made using Scheme 54.
Setting [5] is: Table 21, compounds made using Scheme 28.
Where [6] appears, read: Table 31, compounds made using Schemes 38-45.
Where [7] appears, read: Table 37, compounds made using Scheme 55.

T1 sequence (P26663 1027-1657): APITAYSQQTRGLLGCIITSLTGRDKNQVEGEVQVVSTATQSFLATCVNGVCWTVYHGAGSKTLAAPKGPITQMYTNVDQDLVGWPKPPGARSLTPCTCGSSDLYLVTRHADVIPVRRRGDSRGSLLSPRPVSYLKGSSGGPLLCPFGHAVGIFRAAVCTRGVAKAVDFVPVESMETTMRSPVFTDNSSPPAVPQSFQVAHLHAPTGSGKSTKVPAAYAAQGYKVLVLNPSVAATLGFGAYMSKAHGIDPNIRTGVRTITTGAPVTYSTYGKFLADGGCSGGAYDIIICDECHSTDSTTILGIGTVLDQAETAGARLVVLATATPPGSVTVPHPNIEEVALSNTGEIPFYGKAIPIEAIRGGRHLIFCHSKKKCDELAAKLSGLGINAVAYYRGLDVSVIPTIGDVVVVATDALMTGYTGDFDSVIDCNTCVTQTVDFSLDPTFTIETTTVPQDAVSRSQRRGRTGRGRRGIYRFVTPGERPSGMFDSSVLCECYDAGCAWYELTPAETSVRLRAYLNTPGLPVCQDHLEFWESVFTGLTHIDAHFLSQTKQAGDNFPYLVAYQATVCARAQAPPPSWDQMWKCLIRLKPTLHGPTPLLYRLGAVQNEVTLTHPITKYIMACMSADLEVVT

For `CC(C)c1ccc(Cn2c(C(=O)NCc3ccc(OC(F)(F)F)cc3)c(CC(=O)O)c3ccccc32)cc1` [Example 454], the IC50 (as a rule, the point on the concentration scale where inhibition reaches its midpoint) under setting [1] is less than 10 µM.

Consider `CC(C)c1cccc(-c2cccc(Cc3oc4ccccc4c3CC(=O)O)c2)c1` [Example 311], for which, under setting [1], the IC50 was less than 10 µM.

With `O=C(O)Cc1c(Cc2cccc(-c3cccc(Cl)c3Cl)c2)[nH]c2ccccc12` [Example 303], under setting [1], the IC50 was less than 10 µM.

For the compound `CC(C)(C)OC(=O)Nc1nnc(-c2ccc3c(CC(=O)O)cn(Cc4csc5ccc(Cl)cc45)c3c2)s1` [Example 658], the concentration for half-maximal inhibition (IC50) under setting [2] was less than 10 µM.

Take `Cn1cc(CC(=O)O)c2ccc(-c3cc(N)cc(N)c3)cc21` [Example 675]: the IC50 under setting [3] is greater than 50 µM.

For `COC(=O)C(Cc1ccccc1)c1cn(-c2ccc([N+](=O)[O-])cc2C)c2ccc(Br)cc12` (stereo not shown) [Example 397], under setting [1], the IC50 was greater than 50 µM.

Turning to `O=C(O)Cc1c(C(=O)Cc2ccc(-c3ccccc3)cc2)[nH]c2ccccc12` [Example 249], under setting [1], the IC50 fell in the range of 10 to 50 µM.

As for `COc1cccc(CN(C)c2ccc(-n3cc(CC(=O)O)c4ccccc43)cc2)c1` [Example 177], the IC50 under setting [1] was less than 10 µM.

For `Cc1cc([N+](=O)[O-])ccc1-n1cc(CC(=O)O)c2ccc(OCc3ccccc3)cc21` [Example 343], the IC50 under setting [1] lay in the range of 10 to 50 µM.

As for `COc1ccc2c(CC(=O)O)cn(Cc3csc4ccc(Cl)cc34)c2c1` [Example 345], the IC50 under setting [1] was 10 to 50 µM.

`O=C(O)Cc1c(C(=O)c2ccc(-c3ccccc3Cl)cc2)[nH]c2ccccc12` [Example 255]: the IC50 under setting [1] was in the range of 10 to 50 µM.

In the case of `CC(C)c1ccc(Cn2cc(C(Cc3ccccc3)C(=O)NO)c3cc(Br)ccc32)cc1` (stereo not shown) [Example 684], under setting [3], the IC50 is less than 10 µM.

In the case of `Cc1cc([N+](=O)[O-])ccc1-n1cc(CP(=O)(O)O)c2cc(Br)ccc21` [Example 313], the IC50 under setting [1] was in the range of 10 to 50 µM.

Consider `Cc1cc([N+](=O)[O-])ccc1-n1cc(C(CC2CC2)C(=O)O)c2ccccc21` (stereo not shown) [Example 416], for which, under setting [1], the IC50 is 10 to 50 µM.

With `O=C(O)Cc1c(C(=O)c2ccc(-c3ccc(Cl)c(Cl)c3)cc2)[nH]c2ccccc12` [Example 257], under setting [1], the IC50 was less than 10 µM.

As to `CCOC(=O)Cc1cn(Cc2csc3c(Cl)c(Cl)ccc23)c2cc(Br)ccc12` [Example 779], under setting [4], the IC50 is greater than 50 µM.

In the case of `COc1ccc2c(c1)c(CC(=O)O)cn2Cc1csc2ccc(Cl)cc12` [Example 106], under setting [1], the IC50 lay within 10 to 50 µM.

Regarding `O=C(O)Cc1cn(Cc2cccc(Oc3ccc(F)c(F)c3)c2)c2ccccc12` [Example 484], the IC50 under setting [1] was less than 10 µM.

Consider `CC(C)c1ccc(Cn2c(C(=O)NCc3cccc(Cl)c3)c(CC(=O)O)c3ccccc32)cc1` [Example 451], for which the IC50 under setting [1] is less than 10 µM.

Turning to `Nc1cc(N)cc(-c2ccc3c(CC(=O)O)cn(Cc4nc5ccccc5s4)c3c2)c1` [Example 735], the IC50 under setting [4] was greater than 50 µM.

As to `Cc1cc(C)cc(-c2cccc(C(=O)c3[nH]c4ccccc4c3CC(=O)O)c2)c1` [Example 233], under setting [1], the IC50 is less than 10 µM.

Regarding `COc1ccc2c(c1)c(CC(=O)O)cn2Cc1cccc(OCc2ccccc2)c1` [Example 107], under setting [1], the IC50 lay in the range of 10 to 50 µM.

Turning to `CCOC(=O)Cc1c(-c2ccccc2)n(Cc2csc3ccc(Cl)cc23)c2ccccc12` [Example 412], the IC50 under setting [1] was greater than 50 µM.

Regarding `CN(Cc1ccccc1)c1ccc(-n2cc(CC(=O)O)c3ccccc32)cc1` [Example 162], the IC50 under setting [1] is less than 10 µM.

Take `O=C(O)Cc1c(C(=O)c2cccc(-c3ccc(Cl)c(Cl)c3)c2)oc2ccccc12` [Example 243]: under setting [1], the IC50 is less than 10 µM.

For the compound `COc1ccccc1N(C)c1ccc(Cn2cc(CC(=O)O)c3ccccc32)cc1` [Example 562], the IC50 under setting [5] lay in the range of 10 to 50 µM.

Regarding `Cc1cc([N+](=O)[O-])ccc1-n1cc(C(C(=O)O)c2ccccc2)c2cc(Br)ccc21` (stereo not shown) [Example 388], the IC50 under setting [1] is less than 10 µM.

For `O=C(O)Cc1c(C(=O)Cc2ccccc2)n(Cc2ccccc2)c2ccccc12` [Example 258], the IC50 under setting [1] lay in the range of 10 to 50 µM.

On to `CN(c1cccc(Cn2cc(CC(=O)O)c3ccccc32)c1)c1ccccc1F` [Example 520], for which the IC50 under setting [1] was less than 10 µM.

Turning to `O=C(O)Cc1c(C(=O)c2ccc(-c3ccc(Cl)cc3Cl)cc2)[nH]c2ccccc12` [Example 272], the IC50 under setting [1] was less than 10 µM.

For `O=C(O)Cc1cn(Cc2ccc(Oc3ccccc3C(F)(F)F)cc2)c2ccccc12` [Example 502], the IC50 under setting [1] is less than 10 µM.

Regarding `CN(c1cccc(Cn2cc(CC(=O)O)c3ccccc32)c1)c1cc(Cl)ccc1Cl` [Example 539], the IC50 under setting [1] was less than 10 µM.

Take `CCS(=O)(=O)NC(=O)Cc1cn(Cc2cccc(OCc3ccccc3)c2)c2ccc(OCc3ccccc3)cc12` [Example 193]: the IC50 under setting [1] is less than 10 µM.

For the compound `CCOC(=O)C(Cc1ccccc1)c1c(-c2ccccc2)n(Cc2csc3ccc(Cl)cc23)c2ccccc12` (stereo not shown) [Example 413], the concentration for half-maximal inhibition (IC50) under setting [1] is greater than 50 µM.

As to `O=C(O)Cc1cn(Cc2cccc(OCc3ccccc3)c2)c2ccc(Br)cc12` [Example 101], the IC50 under setting [1] is less than 10 µM.

With `CCOC(=O)Cc1cn(Cc2ccc(Oc3cccc(Cl)c3)cc2)c2cc(-c3cccc(OC(C)=O)c3)ccc12` [Example 601], the IC50 under setting [1] is greater than 50 µM.

Take `Nc1cc(N)nc(-c2ccc3c(CC(=O)O)cn(Cc4csc5ccc(Cl)cc45)c3c2)n1` [Example 635]: the IC50 under setting [6] lay within 10 to 50 µM.

For the compound `CN(c1cccc(Cn2cc(CC(=O)O)c3ccccc32)c1)c1ccc(F)cc1F` [Example 534], the IC50 under setting [1] fell in the range of 10 to 50 µM.

Turning to `Nc1cc(-c2ccc3c(CC(=O)O)cn(Cc4csc5ccc(Cl)cc45)c3c2)nc(N)n1` [Example 629], the 50% inhibitory concentration (IC50) under setting [6] was less than 10 µM.

For the compound `O=C(O)Cc1cn(Cc2ccc(Oc3ccc(C(F)(F)F)cc3C(F)(F)F)cc2)c2ccccc12` [Example 591], the IC50 (Table 23, compounds made using Scheme 30) was less than 10 µM.

`Nc1cc(N)cc(-c2ccc3c(CC(=O)O)cn(Cc4csc5cc(Cl)ccc45)c3c2)c1` [Example 728]: under setting [4], the IC50 is less than 10 µM.

Take `CN(c1ccc(Cn2cc(CC(=O)O)c3ccccc32)cc1)c1ccc(Cl)c(Cl)c1` [Example 575]: under setting [5], the IC50 was less than 10 µM.

Regarding `Cc1ccc(N)cc1-c1ccc2c(CC(=O)O)cn(Cc3csc4ccc(Cl)cc34)c2c1` [Example 627], under setting [6], the IC50 was less than 10 µM.

As for `Cc1sc2ccc(Cl)cc2c1Cn1cc(CC(=O)O)c2ccccc21` [Example 790], the IC50 under setting [4] was greater than 50 µM.

As for `COC(=O)Cc1cn(Cc2csc3ccc(Cl)cc23)c2cc(N3CCCC(OC(C)=O)C3)ccc12` (stereo not shown) [Example 697], the IC50 under setting [3] is greater than 50 µM.

`N#Cc1cccc(-c2ccc3c(CC(=O)O)cn(Cc4csc5ccc(Cl)cc45)c3c2)c1` [Example 756]: under setting [7], the IC50 lay within 10 to 50 µM.

Take `COc1cc(Cl)cc2c(Cn3cc(CC(=O)O)c4ccc(-c5cc(N)cc(N)c5)cc43)csc12` [Example 722]: the IC50 under setting [4] lay within 10 to 50 µM.

With `Cc1cccc(-c2ccc3c(CC(=O)O)cn(Cc4csc5ccc(Cl)cc45)c3c2)c1` [Example 752], the IC50 under setting [7] lay within 10 to 50 µM.

Take `O=C(O)Cc1cn(Cc2csc3ccc(Cl)cc23)c2cc(-c3c[nH]c(=O)[nH]c3=O)ccc12` [Example 662]: under setting [2], the IC50 lay within 10 to 50 µM.

Take `CS(=O)(=O)NC(=O)Cc1cn(Cc2cccc(OCc3ccccc3)c2)c2ccc(OCc3ccccc3)cc12` [Example 192]: under setting [1], the IC50 was less than 10 µM.

For `Cc1cc([N+](=O)[O-])ccc1-n1cc(C(=O)C(=O)O)c2cc(Br)ccc21` [Example 381], the IC50 under setting [1] was 10 to 50 µM.

Consider `O=C(O)Cc1c(Cc2csc3ccc(Cl)cc23)n(-c2ccc([N+](=O)[O-])cc2)c2cc(OCc3ccccc3)ccc12` [Example 372], for which the IC50 under setting [1] is less than 10 µM.

As for `Cc1ccc2sc(-n3cc(CC(=O)O)c4ccccc43)cc2c1` [Example 146], under setting [1], the IC50 was less than 10 µM.

On to `CCC(=O)Oc1cn(Cc2csc3ccc(Cl)cc23)c2cc(-c3ccccc3)ccc12` [Example 616], for which, for the setting “Table 26, compounds made using Scheme 33”, the IC50 is greater than 50 µM.

`O=C(O)Cc1c(C(=O)c2ccc(Br)cc2)n(Cc2ccccc2)c2ccccc12` [Example 248]: under setting [1], the IC50 was in the range of 10 to 50 µM.

As to `O=C(OCc1ccccc1)C(Cc1ccccc1)c1cn(Cc2csc3ccc(Cl)cc23)c2cc(OCc3ccccc3)ccc12` (stereo not shown) [Example 350], under setting [1], the IC50 is greater than 50 µM.

Take `Oc1cc(Cc2cn(Cc3csc4ccc(Cl)cc34)c3ccccc23)n[nH]1` [Example 213]: the IC50 under setting [1] fell in the range of 10 to 50 µM.

As to `Cn1c(Cc2csc3ccc(Cl)cc23)c(CC(=O)O)c2ccc(OCc3ccccc3)cc21` [Example 368], the IC50 under setting [1] was less than 10 µM.

In the case of `CC(C)c1ccc(Cn2c(C(=O)NCc3ccccc3)c(CC(=O)O)c3cc(Br)ccc32)cc1` [Example 440], the IC50 under setting [1] was 10 to 50 µM.

On to `O=C(Cc1cn(Cc2cccc(CCc3ccccc3)c2)c2ccc(Br)cc12)N1CCCC1` [Example 184], for which the IC50 under setting [1] was 10 to 50 µM.

Regarding `CN(c1cccc(Cn2cc(CC(=O)O)c3ccccc32)c1)c1cccc(C(F)(F)F)c1` [Example 530], the IC50 under setting [1] was less than 10 µM.

Consider `O=C(O)Cc1cn(Cc2csc3ccc(Cl)cc23)c2cc(-c3cccc(F)c3)ccc12` [Example 759], for which the IC50 under setting [7] was greater than 50 µM.

With `NC(=O)Nc1cccc(-c2ccc3c(CC(=O)O)cn(Cc4csc5ccc(Cl)cc45)c3c2)c1` [Example 767], the IC50 under setting [7] lay in the range of 10 to 50 µM.

For the compound `CCS(=O)(=O)NC(=O)Cc1cn(Cc2csc3ccc(Cl)cc23)c2ccccc12` [Example 197], the IC50 under setting [1] is 10 to 50 µM.

On to `CN(c1cccc(Cn2cc(CC(=O)O)c3ccccc32)c1)c1cc(C(F)(F)F)cc(C(F)(F)F)c1` [Example 547], for which, under setting [1], the IC50 was less than 10 µM.

On to `O=C(O)Cc1cn(Cc2ccc(-c3ccccc3)cc2)c2ccc(Br)cc12` [Example 109], for which the IC50 under setting [1] was less than 10 µM.

Regarding `Cc1cc([N+](=O)[O-])ccc1-n1cc(C(Cc2ccc(C(C)C)cc2)C(=O)O)c2cc(Br)ccc21` (stereo not shown) [Example 408], the IC50 under setting [1] was 10 to 50 µM.
